Reference: patent US20220220155A1, “VASCULAR C[…] USE THEREOF” (priority 2019, published 2022)
Where a SMILES comes first, the peptide text is derived from it. [ ]: non-standard residue; d: D form. ξ: configuration not given here. ξD = NC(CC(=O)O)C(=O)O

Legend:
[1] = test system: human coronary vascular smooth muscle cells (hcVSMC); experiment: Inhibition of intracellular cholesterol accumulation induced by SMase (CE/FC ratio); assay type: cell-based; details: hcVSMC exposed 2 hours to SMase-LDL treated overnight with peptide 10 μM; CE and FC by thin layer chromatography and densitometry, Equation II
Experimental: Thus, the inhibitory effect of the novel compounds on the intracellular cholesterol accumulation has been analysed in terms of decrease in the ratio of intracellular CE and free cholesterol FC content of hcVSMC exposed to LDL and SMase-LDL.
All cells used were from a unique batch in order to prevent variability from cell origin. Cell quiescence was induced by maintaining the cell culture for 24 hours in a medium. Serum-deprived cells between passages 4 and 8 were used for experiments. VSMCs at these passages appeared as a relatively homogeneous population, showing a hill-and-valley confluence pattern. Cell monolayers were grown in vascular cell basal medium supplemented with vascular smooth muscle growth kit components. Quiescent cells were 2-hours exposed to LDL treated with SMase (in absence or presence of peptides) overnight at a concentration of 10 μM previously checked its aggregation by a turbidimetry test. Cells were then either collected for lipid extraction or processed for confocal microscopy analysis.
Following the lipoprotein incubation period, hcVSMC were exhaustively washed (twice with PBS, twice with PBS supplemented with 1% BSA, and once with PBS supplemented with both 1% BSA and 100 U/mL heparin), before they were harvested into 1 mL of 0.15 M NaOH. Lipids were extracted using the Bligh and Dyer method. The lipid extract was redissolved in dichloromethane, applied to silica gel plates, and separated by thin layer chromatography. A mixture of cholesterol and cholesterol palmitate, were also run as standards. Heptane or a solvent combination of heptane/diethylether/acetic acid (74:21:4, v/v/v) were used as chromatographic mobile phase. After lipid separation, the plates were dried and stained as previously reported. Finally, the spots corresponding to cholesteryl ester (CE) and free cholesterol (FC) were quantitated by densitometry.
The efficacy of each novel compound to decrease the ratio of intracellular cholesteryl esters (CE) and free cholesterol (FC) content of hcVSMC exposed to LDL and SMase-LDL was calculated according to Equation II.
a corresponds to the CE/FC ratio in hcVSMC exposed to SMase-LDL and in the presence of the test compound.
b corresponds to the CE/FC ratio in hcVSMC exposed to nLDL in the absence of the test compound.
c corresponds to the CE/FC ratio in hcVSMC exposed to SMase-LDL in the absence of the test compound.

PLA2-treated LDL = molecular target: T1, PLA2-treated LDL (Homo sapiens, UniProt P04114); experiment: Anti-LDL aggregation assay, turbidimetry, aggregation induced by phospholipase A2 (PLA2); assay type: biochemical; details: 18 h, read-out: Inhibition of LDL aggregation, PLA2-treated LDL
T1 construct: from tissue; host or cells: pooled normolipemic human plasma
Experimental: (§1) The efficacy of the novel compounds to inhibit the aggregation of LDL has been tested in two parallel turbidimetric assays differing from each other only in the enzyme used to induce LDL aggregation, namely sphingomyelinase (SMase) and phospholipase A2 (PLA2), respectively.
(§2) Human LDL (d1.019-d1.063 g/mL) were obtained from pooled normolipemic human plasma by sequential ultracentrifugation in a KBr density gradient. Briefly, VLDL were first discarded after spinning plasma at 36.000 rpm for 18 h at 4° C., VLDL-free plasma was layered with 1.063 g/mL KBr solution and centrifuged at 36,000 rpm for 18 h at 4° C. LDL were dialyzed against 0.02 M Tris, 0.15 M NaCl, 1 mM EDTA, pH 7.5 for 18 hours, and then against normal saline for 2 hours. Finally, isolated LDL were filter-sterilized. Protein concentration was determined using a colorimetric assay.
(§3) Human LDL particles (1.44 mg/mL) were incubated with 40 U/L of Bacillus cereus SMase or with 50 μg/L of type II secretory PLA2 from honey bee venom in 20 mM Tris buffer (pH 7.0) containing 150 mM NaCl, 2 mM CaCl2), and MgCl2 at 37° C. LDL incubation with SMase and PLA2 was performed at peptide concentration of 10 μM (ratio compound/ApoB-100: 4.7/1) for 18 hours. LDL lipolysis was stopped by addition of EDTA (final concentration 10 mM).
(§4) The efficiency of each novel compound to inhibit LDL aggregation induced by SMase and PLA2 was estimated by turbidimetry measuring the absorbance at a wavelength of 405 nm. Thus, the inhibitory activity was calculated according to Equation I.
(§5) a corresponds to the absorbance value in the presence of nLDL particles, LDL aggregating enzyme (i.e., SMase or PLA2) and test compound;
(§6) b corresponds to the absorbance value in the presence of only nLDL particles;
(§7) c corresponds to the absorbance value in the presence of nLDL particles and LDL aggregating enzyme (i.e., SMase or PLA2);

SMase-treated LDL = molecular target: T2, SMase-treated LDL (Homo sapiens, UniProt P04114); experiment: Anti-LDL aggregation assay, turbidimetry, aggregation induced by sphingomyelinase (SMase); assay type: biochemical; details: peptide 10 μM (compound/ApoB-100 4.7/1), human LDL 1.44 mg/mL, 40 U/L Bacillus cereus SMase, 18 hours, 37° C., absorbance at 405 nm, Equation I
T2 construct: from tissue; host or cells: pooled normolipemic human plasma
Experimental: as §1, §2, §3, §4, §5, §6, §7

T2 sequence (P04114 28-4563): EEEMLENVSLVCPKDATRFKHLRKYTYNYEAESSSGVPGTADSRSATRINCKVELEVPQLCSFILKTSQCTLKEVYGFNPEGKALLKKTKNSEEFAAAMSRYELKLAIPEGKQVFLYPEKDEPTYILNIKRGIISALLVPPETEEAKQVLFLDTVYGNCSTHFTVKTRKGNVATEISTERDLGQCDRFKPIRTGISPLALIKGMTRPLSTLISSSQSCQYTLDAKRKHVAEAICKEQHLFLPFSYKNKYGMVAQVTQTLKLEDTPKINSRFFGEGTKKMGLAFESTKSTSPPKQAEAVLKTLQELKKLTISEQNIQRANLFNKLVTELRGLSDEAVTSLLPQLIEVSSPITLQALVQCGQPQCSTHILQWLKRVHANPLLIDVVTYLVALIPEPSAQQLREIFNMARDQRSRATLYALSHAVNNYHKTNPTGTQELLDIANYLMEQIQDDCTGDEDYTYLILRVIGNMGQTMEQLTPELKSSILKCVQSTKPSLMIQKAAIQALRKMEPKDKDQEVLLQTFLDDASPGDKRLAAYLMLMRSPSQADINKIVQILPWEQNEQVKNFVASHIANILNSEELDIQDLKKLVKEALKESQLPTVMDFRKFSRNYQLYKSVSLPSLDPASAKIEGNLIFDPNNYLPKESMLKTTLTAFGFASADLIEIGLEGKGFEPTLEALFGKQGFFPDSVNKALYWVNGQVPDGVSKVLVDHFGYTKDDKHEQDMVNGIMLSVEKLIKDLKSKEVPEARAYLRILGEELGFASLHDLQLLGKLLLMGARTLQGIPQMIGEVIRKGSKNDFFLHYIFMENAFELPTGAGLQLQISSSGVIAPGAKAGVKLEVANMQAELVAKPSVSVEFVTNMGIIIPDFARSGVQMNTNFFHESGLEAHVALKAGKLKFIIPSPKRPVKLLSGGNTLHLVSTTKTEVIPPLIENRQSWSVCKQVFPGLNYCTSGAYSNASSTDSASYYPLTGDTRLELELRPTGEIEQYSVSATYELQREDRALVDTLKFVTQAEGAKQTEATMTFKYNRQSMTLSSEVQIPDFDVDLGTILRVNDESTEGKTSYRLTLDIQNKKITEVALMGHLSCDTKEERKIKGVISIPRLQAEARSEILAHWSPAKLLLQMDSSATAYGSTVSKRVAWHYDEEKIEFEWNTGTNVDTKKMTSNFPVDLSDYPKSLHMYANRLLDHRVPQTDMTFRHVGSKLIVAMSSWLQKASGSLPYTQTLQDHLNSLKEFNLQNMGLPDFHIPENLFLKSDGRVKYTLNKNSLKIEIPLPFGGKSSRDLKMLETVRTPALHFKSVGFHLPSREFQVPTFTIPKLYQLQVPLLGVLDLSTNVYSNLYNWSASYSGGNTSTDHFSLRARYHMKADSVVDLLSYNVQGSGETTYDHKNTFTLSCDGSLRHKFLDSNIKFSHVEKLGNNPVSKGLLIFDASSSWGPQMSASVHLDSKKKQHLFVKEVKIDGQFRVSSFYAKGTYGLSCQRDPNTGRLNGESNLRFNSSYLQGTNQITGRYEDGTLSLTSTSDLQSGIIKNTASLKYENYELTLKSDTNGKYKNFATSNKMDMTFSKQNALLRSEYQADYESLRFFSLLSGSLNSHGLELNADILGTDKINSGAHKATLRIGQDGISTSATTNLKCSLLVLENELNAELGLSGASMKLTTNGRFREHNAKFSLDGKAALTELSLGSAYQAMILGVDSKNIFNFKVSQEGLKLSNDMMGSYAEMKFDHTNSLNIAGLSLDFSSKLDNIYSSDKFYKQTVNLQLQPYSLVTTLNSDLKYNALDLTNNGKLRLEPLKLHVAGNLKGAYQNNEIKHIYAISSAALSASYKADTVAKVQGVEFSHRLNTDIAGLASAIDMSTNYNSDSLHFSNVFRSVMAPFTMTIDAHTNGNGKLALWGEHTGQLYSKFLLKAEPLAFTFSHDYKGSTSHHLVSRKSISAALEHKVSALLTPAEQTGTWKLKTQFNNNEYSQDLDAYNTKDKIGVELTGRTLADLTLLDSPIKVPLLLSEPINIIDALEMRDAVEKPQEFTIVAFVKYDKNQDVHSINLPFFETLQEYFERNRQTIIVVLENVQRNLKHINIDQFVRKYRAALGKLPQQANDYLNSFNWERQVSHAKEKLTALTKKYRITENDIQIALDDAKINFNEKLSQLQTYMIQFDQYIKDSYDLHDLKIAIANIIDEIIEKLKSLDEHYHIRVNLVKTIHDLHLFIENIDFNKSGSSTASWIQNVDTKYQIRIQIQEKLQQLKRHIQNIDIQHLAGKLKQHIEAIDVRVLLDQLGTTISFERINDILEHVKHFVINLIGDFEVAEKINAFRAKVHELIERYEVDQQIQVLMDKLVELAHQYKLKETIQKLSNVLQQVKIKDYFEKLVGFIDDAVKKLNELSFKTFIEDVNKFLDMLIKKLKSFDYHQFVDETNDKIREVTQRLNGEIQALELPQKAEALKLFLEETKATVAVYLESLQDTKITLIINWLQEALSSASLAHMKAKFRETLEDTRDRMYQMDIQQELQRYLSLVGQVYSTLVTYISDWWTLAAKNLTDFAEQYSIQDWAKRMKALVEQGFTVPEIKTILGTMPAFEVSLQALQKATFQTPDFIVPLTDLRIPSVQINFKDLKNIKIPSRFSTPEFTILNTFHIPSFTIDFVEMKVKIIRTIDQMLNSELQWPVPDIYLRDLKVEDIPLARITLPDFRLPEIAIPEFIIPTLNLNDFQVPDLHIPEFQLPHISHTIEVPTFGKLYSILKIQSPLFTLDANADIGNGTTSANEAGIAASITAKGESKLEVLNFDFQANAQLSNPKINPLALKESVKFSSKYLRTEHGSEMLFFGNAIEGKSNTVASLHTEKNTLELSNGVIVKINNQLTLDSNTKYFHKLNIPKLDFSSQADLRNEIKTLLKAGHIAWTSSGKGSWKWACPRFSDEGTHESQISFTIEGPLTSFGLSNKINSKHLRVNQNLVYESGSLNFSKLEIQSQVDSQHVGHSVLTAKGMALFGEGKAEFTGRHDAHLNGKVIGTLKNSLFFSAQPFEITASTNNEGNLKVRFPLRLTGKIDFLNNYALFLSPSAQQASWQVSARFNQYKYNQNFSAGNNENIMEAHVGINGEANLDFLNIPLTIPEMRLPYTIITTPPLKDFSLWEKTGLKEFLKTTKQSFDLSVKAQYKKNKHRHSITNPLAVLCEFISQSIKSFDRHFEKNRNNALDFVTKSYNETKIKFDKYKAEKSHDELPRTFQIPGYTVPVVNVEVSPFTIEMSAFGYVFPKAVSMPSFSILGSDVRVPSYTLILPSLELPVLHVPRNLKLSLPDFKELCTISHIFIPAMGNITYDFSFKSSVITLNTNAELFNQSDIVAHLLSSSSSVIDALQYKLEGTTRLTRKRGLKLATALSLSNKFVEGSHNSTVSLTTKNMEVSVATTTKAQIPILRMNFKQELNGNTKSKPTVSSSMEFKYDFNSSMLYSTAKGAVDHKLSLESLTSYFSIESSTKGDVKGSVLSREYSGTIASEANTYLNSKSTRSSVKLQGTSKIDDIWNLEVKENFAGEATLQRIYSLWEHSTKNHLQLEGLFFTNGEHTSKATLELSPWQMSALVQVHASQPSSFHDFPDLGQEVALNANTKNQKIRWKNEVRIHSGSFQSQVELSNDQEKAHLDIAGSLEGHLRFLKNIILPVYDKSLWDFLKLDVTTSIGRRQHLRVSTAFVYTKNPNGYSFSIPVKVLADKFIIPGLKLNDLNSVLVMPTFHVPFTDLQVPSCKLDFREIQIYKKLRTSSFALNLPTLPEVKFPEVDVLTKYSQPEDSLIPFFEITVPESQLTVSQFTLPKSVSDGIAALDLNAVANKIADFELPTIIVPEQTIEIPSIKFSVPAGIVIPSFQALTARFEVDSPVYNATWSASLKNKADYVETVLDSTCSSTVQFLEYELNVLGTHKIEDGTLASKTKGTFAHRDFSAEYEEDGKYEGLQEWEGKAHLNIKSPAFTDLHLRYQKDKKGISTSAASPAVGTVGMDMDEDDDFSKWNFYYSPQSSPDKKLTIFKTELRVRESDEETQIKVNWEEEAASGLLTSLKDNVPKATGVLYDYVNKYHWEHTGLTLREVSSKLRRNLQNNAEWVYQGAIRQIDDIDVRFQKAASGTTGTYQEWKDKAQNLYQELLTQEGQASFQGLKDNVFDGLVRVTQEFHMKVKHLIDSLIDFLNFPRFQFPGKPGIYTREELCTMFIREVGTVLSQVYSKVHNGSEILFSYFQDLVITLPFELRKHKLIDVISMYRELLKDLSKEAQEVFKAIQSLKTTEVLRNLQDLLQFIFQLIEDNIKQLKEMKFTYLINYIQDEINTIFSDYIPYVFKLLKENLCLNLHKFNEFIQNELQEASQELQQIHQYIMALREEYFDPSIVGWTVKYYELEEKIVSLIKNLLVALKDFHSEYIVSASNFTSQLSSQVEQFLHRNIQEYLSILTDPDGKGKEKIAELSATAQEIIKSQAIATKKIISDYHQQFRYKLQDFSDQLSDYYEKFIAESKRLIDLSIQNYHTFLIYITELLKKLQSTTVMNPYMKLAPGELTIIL
T1 sequence (P04114 28-4563): as above

| SMILES | CE/FC ratio decrease (%) [1] [%] | inhibition at 10 µM (PLA2-treated LDL) [%] | inhibition at 10 µM (SMase-treated LDL) [%] |
| --- | --- | --- | --- |
| CC(=O)NCC(=O)N[C@H](CC(=O)O)C(=O)N[C@H](CC(N)=O)C(=O)N[C@H](CC(=O)O)C(=O)N[C@H](CO)C(=O)N[C@H](CCC(=O)O)C(=O)N[C@H](CC(=O)O)C(=O)N[C@H](CC(N)=O)C(=O)N[C@H](CO)C(=O)N[C@H](CC(=O)O)C(=O)N[C@H](CCC(=O)O)C(=O)N[C@H](CCC(=O)O)C(=O)N[C@H](CC(N)=O)C(N)=O [Example 1, Ac-Gly-D-Asp-D-Asn-D-Asp-D-Ser-D-Glu-D-Asp-D-Asn-D-Ser-D-Asp-D-Glu-D-lu-D-Asn-NH2] (Ac-G[dD][dN][dD][dS][dE][dD][dN][dS][dD][dE][dE][dN]-NH2) | 76.5 | 77.5 | 92.5 |
| CC(=O)N[C@H](CC(=O)O)C(=O)N[C@H](CC(N)=O)C(=O)N[C@H](CC(=O)O)C(=O)N[C@H](CO)C(=O)N[C@H](CCC(=O)O)C(=O)NC(CC(=O)O)C(=O)N[C@H](CC(N)=O)C(=O)N[C@H](CO)C(=O)N[C@H](CC(=O)O)C(=O)N[C@H](CCC(=O)O)C(=O)N[C@H](CCC(=O)O)C(=O)N[C@H](C)C(N)=O (stereo partly drawn) [Example 13, Ac-D-Asp-D-Asn-D-Asp-D-Ser-D-Glu-D-Asp-D-Asn-D-Ser-D-Asp-D-Glu-D-Glu-D-Ala-NH2] (Ac-[dD][dN][dD][dS][dE][ξD][dN][dS][dD][dE][dE][dA]-NH2) | 80.4 | 95.9 | 95.5 |
| CC(=O)N[C@H](CO)C(=O)N[C@H](CCC(=O)O)C(=O)N[C@H](CC(=O)O)C(=O)N[C@H](CC(N)=O)C(=O)N[C@H](CCCCN)C(=O)N[C@H](CC(=O)O)C(=O)N[C@H](CCC(=O)O)C(=O)N[C@H](CCC(=O)O)C(=O)N[C@H](CC(N)=O)C(N)=O [Example 9, Ac-D-Ser-D-Glu-D-Asp-D-Asn-D-Lys-D-Asp-D-Glu-D-Glu-D-Asn-NH2] (Ac-[dS][dE][dD][dN][dK][dD][dE][dE][dN]-NH2) | 58.8 | 36.4 | 91 |
| CC(=O)N[C@H](CC(=O)O)C(=O)N[C@H](CO)C(=O)N[C@H](CCC(=O)O)C(=O)N[C@H](CC(=O)O)C(=O)N[C@H](CC(N)=O)C(=O)N[C@H](CO)C(=O)N[C@H](CC(=O)O)C(=O)N[C@H](CCC(=O)O)C(=O)N[C@H](CCC(=O)O)C(=O)N[C@H](C)C(N)=O [Example 15, Ac-D-Asp-D-Ser-D-Glu-D-Asp-D-Asn-D-Ser-D-Asp-D-Glu-D-Glu-D-Ala-NH2] (Ac-[dD][dS][dE][dD][dN][dS][dD][dE][dE][dA]-NH2) | 90.2 | 95.9 | 96 |
| CC(=O)N[C@H](CO)C(=O)N[C@H](CCC(=O)O)C(=O)N[C@H](CC(=O)O)C(=O)N[C@H](CCC(N)=O)C(=O)N[C@H](CO)C(=O)N[C@H](CCC(=O)O)C(=O)N[C@H](CCC(=O)O)C(=O)N[C@H](CCC(=O)O)C(=O)N[C@H](CCC(N)=O)C(N)=O [Example 4, Ac-D-Ser-D-Glu-D-Asp-D-Gln-D-Ser-D-Glu-D-Glu-D-Glu-D-Gln-NH2] (Ac-[dS][dE][dD][dQ][dS][dE][dE][dE][dQ]-NH2) | – | 32.6 | 91.5 |
| CC(=O)N[C@H](CC(=O)O)C(=O)N[C@H](CO)C(=O)N[C@H](CCC(=O)O)C(=O)N[C@H](CC(=O)O)C(=O)N[C@H](CC(N)=O)C(=O)N[C@H](C)C(=O)N[C@H](CC(=O)O)C(=O)N[C@H](CCC(=O)O)C(=O)N[C@H](CCC(=O)O)C(=O)N[C@H](C)C(N)=O [Example 16, Ac-D-Asp-D-Ser-D-Glu-D-Asp-D-Asn-D-Ala-D-Asp-D-Glu-D-Glu-D-Ala-NH2] (Ac-[dD][dS][dE][dD][dN][dA][dD][dE][dE][dA]-NH2) | 69.5 | 61.9 | 94 |
| CC(=O)N[C@H](CO)C(=O)N[C@H](CCC(=O)O)C(=O)N[C@H](CC(=O)O)C(=O)N[C@H](CC(N)=O)C(=O)N[C@H](CCCNC(=N)N)C(=O)N[C@H](CC(=O)O)C(=O)N[C@H](CCC(=O)O)C(=O)N[C@H](CCC(=O)O)C(=O)N[C@H](CCCNC(=N)N)C(N)=O [Example 6, Ac-D-Ser-D-Glu-D-Asp-D-Asn-D-Arg-D-Asp-D-Glu-D-Glu-D-Arg-NH2] (Ac-[dS][dE][dD][dN][dR][dD][dE][dE][dR]-NH2) | 58.8 | 15.3 | 85 |
| CC(=O)N[C@H](CC(=O)O)C(=O)N[C@H](CO)C(=O)N[C@H](CCC(=O)O)C(=O)N[C@H](CC(=O)O)C(=O)N[C@H](CC(N)=O)C(=O)N[C@H](CCCCN)C(=O)N[C@H](CC(=O)O)C(=O)N[C@H](CCC(=O)O)C(=O)N[C@H](CCC(=O)O)C(=O)N[C@H](CC(N)=O)C(N)=O [Example 18, Ac-D-Asp-D-Ser-D-Glu-D-Asp-D-Asn-D-Lys-D-Asp-D-Glu-D-Glu-D-Asn-NH2] (Ac-[dD][dS][dE][dD][dN][dK][dD][dE][dE][dN]-NH2) | 47.6 | 55.1 | 85.1 |
| CC(=O)N[C@H](CO)C(=O)N[C@H](CCC(=O)O)C(=O)N[C@H](CC(=O)O)C(=O)N[C@H](CC(N)=O)C(=O)N[C@H](C)C(=O)N[C@H](CC(=O)O)C(=O)N[C@H](CCC(=O)O)C(=O)N[C@H](CCC(=O)O)C(=O)N[C@H](C)C(N)=O [Example 3, Ac-D-Ser-D-Glu-D-Asp-D-Asn-D-Ala-D-Asp-D-Glu-D-Glu-D-Ala-NH2] (Ac-[dS][dE][dD][dN][dA][dD][dE][dE][dA]-NH2) | – | 37.2 | 90 |
| CC(=O)N[C@H](CO)C(=O)N[C@H](CCC(=O)O)C(=O)N[C@H](CC(=O)O)C(=O)N[C@H](CC(N)=O)C(=O)N[C@H](CCCNC(=N)N)C(=O)N[C@H](CC(=O)O)C(=O)N[C@H](CCC(=O)O)C(=O)N[C@H](CCC(=O)O)C(=O)N[C@H](CC(C)C)C(N)=O [Example 7, Ac-D-Ser-D-Glu-D-Asp-D-Asn-D-Arg-D-Asp-D-Glu-D-Glu-D-Leu-NH2] (Ac-[dS][dE][dD][dN][dR][dD][dE][dE][dL]-NH2) | – | -1.9 | 44.7 |
| CC(=O)N[C@H](CO)C(=O)N[C@H](CCC(=O)O)C(=O)N[C@H](CC(=O)O)C(=O)N[C@H](CCC(N)=O)C(=O)N[C@H](C)C(=O)N[C@H](CCC(=O)O)C(=O)N[C@H](CCC(=O)O)C(=O)N[C@H](CCC(=O)O)C(=O)N[C@H](C)C(N)=O [Example 5, Ac-D-Ser-D-Glu-D-Asp-D-Gln-D-Ala-D-Glu-D-Glu-D-Glu-D-Ala-NH2] (Ac-[dS][dE][dD][dQ][dA][dE][dE][dE][dA]-NH2) | – | 20.7 | 90.1 |
| CC(=O)N[C@H](CO)C(=O)N[C@H](CCC(=O)O)C(=O)N[C@H](CC(=O)O)C(=O)N[C@H](CC(N)=O)C(=O)N[C@H](CCCNC(=N)N)C(=O)N[C@H](CC(=O)O)C(=O)N[C@H](CCC(=O)O)C(=O)N[C@H](CCC(=O)O)C(=O)N[C@H](Cc1c[nH]c2ccccc12)C(N)=O [Example 8, Ac-D-Ser-D-Glu-D-Asp-D-Asn-D-Arg-D-Asp-D-Glu-D-Glu-D-Trp-NH2] (Ac-[dS][dE][dD][dN][dR][dD][dE][dE][dW]-NH2) | – | 3.1 | 64.2 |
